The values below come from US20140213513A1 (Sanofi, priority 2012, published 2014).

*1 amine or outer side, *2 acyl side, *3 side chain or, on linkers, in order; H or OH if unused. Where a SMILES comes first, the peptide text is derived from it. Side-chain parts run from the residue outwards. [ ]: non-standard residue; d: D form. The star is where a group is joined. γGlu = O=C(O)[C@H](CCC(=O)[*:2])N[*:1]; Palmitoyl = CCCCCCCCCCCCCCCC(=O)*; Aib = CC(C)(N)C(=O)O

What all share (type): cell-based
Common to all, as to conditions: Table 7; cAMP formation
On the technique in general: Changes in cAMP serve as a functional read-out for many G protein-coupled receptors.

In test [1] the target is T1, human glucagon receptor (hGLUC R) (Homo sapiens, UniProt P47871).
T1 construct: expressed in transfected cells
T1 sequence (P47871 26-477): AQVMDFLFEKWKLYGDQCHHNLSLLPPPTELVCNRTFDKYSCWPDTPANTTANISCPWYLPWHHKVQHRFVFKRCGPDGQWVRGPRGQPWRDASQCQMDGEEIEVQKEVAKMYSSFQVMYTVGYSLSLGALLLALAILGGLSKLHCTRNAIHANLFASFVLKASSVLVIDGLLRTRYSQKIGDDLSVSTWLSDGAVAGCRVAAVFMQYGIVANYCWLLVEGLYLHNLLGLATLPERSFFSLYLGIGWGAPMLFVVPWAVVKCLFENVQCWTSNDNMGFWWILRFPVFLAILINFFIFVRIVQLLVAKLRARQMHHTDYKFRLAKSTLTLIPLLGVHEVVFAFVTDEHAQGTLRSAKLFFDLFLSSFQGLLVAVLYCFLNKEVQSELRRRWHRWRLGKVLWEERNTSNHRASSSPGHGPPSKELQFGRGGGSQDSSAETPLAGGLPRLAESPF
In words: cAMP response of HEK-293 cells stably expressing human glucagon receptor (HTRF). In short, it runs like this: (§1)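 Stably transfected HEK-293 cells, accutase-harvested; assay buffer 1×HBSS/20 mM HEPES/0.1% BSA/2 mM IBMX; 400000 cells/ml; compound 30 min, RT; cAMP by HTRF kit.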
(In TR-FRET formats the signal depends on donor and acceptor labels being close together.)

The target in test [2] is T2, human GLP-1 receptor (hGLP-1 R) (Homo sapiens, UniProt P43220).
T2 construct: expressed in transfected cells
T2 sequence (P43220 24-463): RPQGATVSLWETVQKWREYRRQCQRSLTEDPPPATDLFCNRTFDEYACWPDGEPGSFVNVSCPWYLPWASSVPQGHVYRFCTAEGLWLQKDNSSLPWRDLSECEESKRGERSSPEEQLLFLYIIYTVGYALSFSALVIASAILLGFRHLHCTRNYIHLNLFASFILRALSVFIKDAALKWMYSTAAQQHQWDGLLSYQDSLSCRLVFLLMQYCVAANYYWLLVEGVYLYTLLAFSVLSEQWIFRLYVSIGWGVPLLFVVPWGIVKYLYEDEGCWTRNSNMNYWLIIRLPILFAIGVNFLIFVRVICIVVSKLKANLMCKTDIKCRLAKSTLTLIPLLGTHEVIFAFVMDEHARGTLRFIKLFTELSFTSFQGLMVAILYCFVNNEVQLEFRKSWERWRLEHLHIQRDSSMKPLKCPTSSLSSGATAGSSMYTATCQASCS
Description: cAMP response of HEK-293 cells stably expressing human GLP-1 receptor (HTRF). In short, it runs like this: as §1

In test [3] the target is T3, human GIP receptor (hGIP R) (Homo sapiens, UniProt P48546).
T3 construct: expressed in transfected cells
T3 sequence (P48546 22-466): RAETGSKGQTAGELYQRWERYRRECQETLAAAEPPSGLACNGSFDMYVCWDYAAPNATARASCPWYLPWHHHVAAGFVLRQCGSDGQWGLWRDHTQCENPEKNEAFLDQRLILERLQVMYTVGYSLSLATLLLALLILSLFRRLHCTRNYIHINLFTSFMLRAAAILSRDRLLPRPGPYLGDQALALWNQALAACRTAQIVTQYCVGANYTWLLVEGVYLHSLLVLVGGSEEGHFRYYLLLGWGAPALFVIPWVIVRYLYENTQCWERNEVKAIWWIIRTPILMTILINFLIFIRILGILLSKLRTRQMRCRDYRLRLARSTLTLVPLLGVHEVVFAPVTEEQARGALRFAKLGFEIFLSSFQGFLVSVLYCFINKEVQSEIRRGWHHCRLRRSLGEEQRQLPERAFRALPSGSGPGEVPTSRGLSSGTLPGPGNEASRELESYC
In words: cAMP response of HEK-293 cells stably expressing human GIP receptor (HTRF). In short, it runs like this:
as §1

On to `CCCCCCCCCCCCCCCC(=O)N[C@@H](CCC(=O)NCCCC[C@H](NC(=O)[C@H](CCC(N)=O)NC(=O)[C@H](CCCCN)NC(=O)[C@H](CO)NC(=O)[C@H](CC(C)C)NC(=O)[C@H](CC(=O)O)NC(=O)[C@H](CO)NC(=O)[C@@H](NC(=O)[C@H](Cc1ccccc1)NC(=O)[C@@H](NC(=O)CNC(=O)[C@H](CCC(N)=O)NC(=O)C(C)(C)NC(=O)[C@@H](N)Cc1ccc(O)cc1)[C@@H](C)O)[C@@H](C)O)C(=O)N[C@@H](CC(=O)O)C(=O)N[C@@H](CO)C(=O)N[C@@H](CCCCN)C(=O)N[C@@H](C)C(=O)N[C@@H](C)C(=O)N[C@@H](CCC(N)=O)C(=O)N[C@@H](CC(=O)O)C(=O)N[C@@H](Cc1ccccc1)C(=O)N[C@H](C(=O)N[C@@H](CCC(=O)O)C(=O)N[C@@H](Cc1c[nH]c2ccccc12)C(=O)N[C@@H](CC(C)C)C(=O)N[C@@H](CCCCN)C(=O)N[C@@H](C)C(=O)NCC(=O)NCC(=O)N1CCC[C@H]1C(=O)N[C@@H](CO)C(=O)N[C@@H](CO)C(=O)NCC(=O)N[C@@H](C)C(=O)N1CCC[C@H]1C(=O)N1CCC[C@H]1C(=O)N1CCC[C@H]1C(=O)N[C@@H](CO)C(N)=O)[C@@H](C)CC)C(=O)O` [SEQ ID NO: 61, Y-Aib-Q-G-T-F-T-S-D-L-S-K-Q-K(yE-x53)-DSKAAQDFIEWLKAGGPSSGAPPPS-NH2] (H-Y[Aib]QGTFTSDLSKQK([γGlu-Palmitoyl])DSKAAQDFIEWLKAGGPSSGAPPPS-NH2), for which the half-maximal effective concentration (EC50) (in general, the midpoint of the concentration-response curve) was found to be 0.0061 nM in test [1], 0.0024 nM in test [2] and 0.0214 nM in test [3].
On to `CCCCCCCCCCCCCCCC(=O)N[C@@H](CCC(=O)NCCCC[C@H](NC(=O)[C@H](CCC(N)=O)NC(=O)[C@@H](NC(=O)[C@H](CO)NC(=O)[C@H](CC(C)C)NC(=O)[C@H](CC(=O)O)NC(=O)[C@H](CO)NC(=O)[C@@H](NC(=O)[C@H](Cc1ccccc1)NC(=O)[C@@H](NC(=O)CNC(=O)[C@H](CCC(N)=O)NC(=O)C(C)(C)NC(=O)[C@@H](N)Cc1ccc(O)cc1)[C@@H](C)O)[C@@H](C)O)[C@@H](C)CC)C(=O)N[C@@H](CCC(=O)O)C(=O)N[C@@H](CCCCN)C(=O)N[C@@H](CCCNC(=N)N)C(=O)N[C@@H](CC(C)C)C(=O)N[C@@H](C)C(=O)NC(C)(C)C(=O)N[C@@H](CCC(=O)O)C(=O)N[C@@H](Cc1ccccc1)C(=O)N[C@H](C(=O)N[C@@H](CCC(=O)O)C(=O)N[C@@H](Cc1c[nH]c2ccccc12)C(=O)N[C@@H](CC(C)C)C(=O)N[C@@H](CCCCN)C(=O)N[C@@H](CC(N)=O)C(=O)N[C@H](C(=O)NCC(=O)N1CCC[C@H]1C(=O)N[C@@H](CO)C(=O)N[C@@H](CO)C(=O)NCC(=O)N[C@@H](C)C(=O)N1CCC[C@H]1C(=O)N1CCC[C@H]1C(=O)N1CCC[C@H]1C(=O)N[C@@H](CO)C(N)=O)[C@@H](C)O)[C@@H](C)CC)C(=O)O` [SEQ ID NO: 19, Y-Aib-Q-G-T-F-T-S-D-L-S-I-Q-K(yE-x53)-E-K-R-L-A-Aib-E-F-I-E-W-L-K-N-T-G-P-S-S-G-A-P-P-P-S-NH2] (H-Y[Aib]QGTFTSDLSIQK([γGlu-Palmitoyl])EKRLA[Aib]EFIEWLKNTGPSSGAPPPS-NH2), for which the EC50 stood at 0.137 nM in test [1], 0.0085 nM in test [2] and 0.0915 nM in test [3].
Turning to `CCCCCCCCCCCCCCCC(=O)N[C@@H](CCC(=O)NCCCC[C@H](NC(=O)[C@H](CCC(N)=O)NC(=O)[C@@H](NC(=O)[C@H](CO)NC(=O)[C@H](CC(C)C)NC(=O)[C@H](CC(=O)O)NC(=O)[C@H](CO)NC(=O)[C@@H](NC(=O)[C@H](Cc1ccccc1)NC(=O)[C@@H](NC(=O)CNC(=O)[C@H](CCC(N)=O)NC(=O)C(C)(C)NC(=O)[C@@H](N)Cc1ccc(O)cc1)[C@@H](C)O)[C@@H](C)O)[C@@H](C)CC)C(=O)N[C@@H](CCC(=O)O)C(=O)N[C@@H](CCCCN)C(=O)N[C@@H](CCCNC(=N)N)C(=O)N[C@@H](C)C(=O)NC(C)(C)C(=O)NC(C)(C)C(=O)N[C@@H](CCC(=O)O)C(=O)N[C@@H](Cc1ccccc1)C(=O)N[C@H](C(=O)N[C@@H](CCC(=O)O)C(=O)N[C@@H](Cc1c[nH]c2ccccc12)C(=O)N[C@@H](CC(C)C)C(=O)N[C@@H](CCCCN)C(=O)N[C@@H](CC(N)=O)C(=O)N[C@H](C(=O)NCC(=O)N1CCC[C@H]1C(=O)N[C@@H](CO)C(=O)N[C@@H](CO)C(=O)NCC(=O)N[C@@H](C)C(=O)N1CCC[C@H]1C(=O)N1CCC[C@H]1C(=O)N1CCC[C@H]1C(=O)N[C@@H](CO)C(N)=O)[C@@H](C)O)[C@@H](C)CC)C(=O)O` [SEQ ID NO: 22, Y-Aib-Q-G-T-F-T-S-D-L-S-I-Q-K(yE-x53)-E-K-R-A-Aib-Aib-E-F-I-E-W-L-K-N-T-G-P-S-S-G-A-P-P-P-S-NH2] (H-Y[Aib]QGTFTSDLSIQK([γGlu-Palmitoyl])EKRA[Aib][Aib]EFIEWLKNTGPSSGAPPPS-NH2), the 50% effective concentration (EC50) in test [1] was determined as 2.21 nM; in test [2], 0.0085 nM; in test [3], 0.102 nM.
For the compound `CCCCCCCCCCCCCCCC(=O)NCCCC[C@H](NC(=O)[C@H](CCC(N)=O)NC(=O)[C@@H](NC(=O)[C@H](CO)NC(=O)[C@H](CC(C)C)NC(=O)[C@H](CC(=O)O)NC(=O)[C@H](CO)NC(=O)[C@@H](NC(=O)[C@H](Cc1ccccc1)NC(=O)[C@@H](NC(=O)CNC(=O)[C@H](CCC(N)=O)NC(=O)C(C)(C)NC(=O)[C@@H](N)Cc1ccc(O)cc1)[C@@H](C)O)[C@@H](C)O)[C@@H](C)CC)C(=O)N[C@@H](CCC(=O)O)C(=O)N[C@@H](CCCCN)C(=O)N[C@@H](CCCNC(=N)N)C(=O)N[C@@H](C)C(=O)N[C@H](C(=O)NC(C)(C)C(=O)N[C@@H](CC(C)C)C(=O)N[C@@H](Cc1ccccc1)C(=O)N[C@H](C(=O)N[C@@H](CCC(=O)O)C(=O)N[C@@H](Cc1c[nH]c2ccccc12)C(=O)N[C@@H](CC(C)C)C(=O)N[C@@H](CCCCN)C(=O)N[C@@H](C)C(=O)NCC(=O)NCC(=O)N1CCC[C@H]1C(=O)N[C@@H](CO)C(=O)N[C@@H](CO)C(=O)NCC(=O)N[C@@H](C)C(=O)N1CCC[C@H]1C(=O)N1CCC[C@H]1C(=O)N1CCC[C@H]1C(=O)N[C@@H](CO)C(N)=O)[C@@H](C)CC)C(C)C` [SEQ ID NO: 25, Y-Aib-Q-G-T-F-T-S-D-L-S-I-Q-K(x53)-E-K-R-A-V-Aib-L-F-I-E-W-L-K-A-G-G-P-S-S-G-A-P-P-P-S-NH2] (H-Y[Aib]QGTFTSDLSIQK(Palmitoyl)EKRAV[Aib]LFIEWLKAGGPSSGAPPPS-NH2), the EC50 in test [1] is 2.03 nM; in test [2] it was 0.037 nM; in test [3], 0.176 nM.
